# Patent US20260226084A1, “DUAL RAF AND TUBULIN INHIBITORS AND METHODS OF USE THEREOF” (Deciphera Pharmaceuticals, LLC, priority 2023, published 2026)
# Tests used:
# [1] = biological target: T1, B-Raf kinase (SEQ ID NO: 1) (Homo sapiens, UniProt P15056); assay: Biochemical Assay for B-Raf (coupled pyruvate kinase/lactate dehydrogenase assay); settings: 1 mM ATP; read-out: BRAF (inhibition of biochemical activity, IC50)
# T1 construct: GST (N); purchased Sigma
# Pa16c cells = assay: Pa16c Cell Proliferation Assay; format: cell-based; settings: Table 2, read-out: Inhibition of cell proliferation in Pa16c (IC50 class)
# In short: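 Mouse Pa16c cells, 750/well in DMEM with 10% FBS, exposed to serially diluted compound in triplicate for 67 to 72 h at 37° C. Viability read by resazurin reduction over a further 18 to 24 h (ex 540/em 600 nm). IC50 calculated from the dose-response.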
# HCT-116 cells = assay: HCT-116 Cell Proliferation Assay; format: cell-based; settings: Homo sapiens, HCT-116, HCT-116 cells; Table 2; read-out: Inhibition of cell proliferation in HCT-116 (IC50 class)
# In short: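 HCT-116 cells, 375/well in McCoy's 5A with 10% FBS, exposed to serial compound dilutions in triplicate for 67 to 72 hours at 37 °C. Viability read by resazurin fluorescence (ex 540/em 600 nm) after a further 4 to 5 h; IC50 values calculated.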
# [2] = biological target: T2, C-Raf kinase (SEQ ID NO: 2) (Homo sapiens, UniProt P04049, Y340D/Y341D); assay: Biochemical Assay for C-Raf (coupled pyruvate kinase/lactate dehydrogenase assay); settings: 1 mM ATP; read-out: CRAF (inhibition of biochemical activity, IC50)
# T2 construct: C-Raf residues 306-end; Y340D, Y341D with; GST (N); purchased Sigma
# T2 sequence (P04049 307-648 Y340D/Y341D): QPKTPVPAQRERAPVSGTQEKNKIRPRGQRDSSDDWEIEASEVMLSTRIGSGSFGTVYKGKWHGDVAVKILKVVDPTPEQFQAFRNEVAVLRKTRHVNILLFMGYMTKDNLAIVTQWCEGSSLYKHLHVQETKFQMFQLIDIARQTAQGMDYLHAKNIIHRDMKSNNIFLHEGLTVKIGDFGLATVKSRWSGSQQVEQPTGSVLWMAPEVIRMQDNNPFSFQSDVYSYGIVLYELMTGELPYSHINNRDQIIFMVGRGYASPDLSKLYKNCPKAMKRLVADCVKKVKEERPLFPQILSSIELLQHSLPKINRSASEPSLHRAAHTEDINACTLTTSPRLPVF
# HPAF-II cells = assay: HPAF-II Cell Proliferation Assay; format: cell-based; settings: Homo sapiens, HPAF-II, HPAF-II cells; Table 2; read-out: Inhibition of cell proliferation in HPAF-II (IC50 class)
# In short: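 HPAF-II cells (750/well) in complete MEM with 10% FBS were exposed to serially diluted compound in triplicate for 115–120 h at 37 °C, 5% CO2. Resazurin was then added for 18–24 h more; fluorescence (ex 540/em 600 nm) gave IC50.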
# MiaPaca-2 cells = assay: MiaPaca-2 Cell Proliferation Assay; format: cell-based; settings: Homo sapiens, MIA PaCa-2, MiaPaca-2 cells; Table 2; read-out: Inhibition of cell proliferation in MiaPaca-2 (IC50 class)
# In short: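 Viability was read as resazurin fluorescence (540 nm excitation, 600 nm emission) after 5–6 h with dye. Compounds were tested as serial dilutions in triplicate, with IC50 derived from the dose–response.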
# T1 sequence (P15056 416-766): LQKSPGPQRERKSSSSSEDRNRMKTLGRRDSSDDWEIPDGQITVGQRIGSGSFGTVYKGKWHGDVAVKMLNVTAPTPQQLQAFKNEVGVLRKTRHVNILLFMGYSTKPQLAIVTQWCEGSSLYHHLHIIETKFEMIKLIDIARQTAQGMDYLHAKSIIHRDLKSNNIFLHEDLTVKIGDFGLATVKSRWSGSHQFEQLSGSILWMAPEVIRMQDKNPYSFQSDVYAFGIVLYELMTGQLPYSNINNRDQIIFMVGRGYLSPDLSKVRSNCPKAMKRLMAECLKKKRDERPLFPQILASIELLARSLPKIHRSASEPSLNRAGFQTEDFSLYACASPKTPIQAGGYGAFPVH
SMILES,IC50 [1] [nM],IC50 (HCT-116 cells) [nM],IC50 [2] [nM],IC50 (MiaPaca-2 cells) [nM],IC50 (Pa16c cells) [nM],IC50 (HPAF-II cells) [nM]
CCNc1cc(-c2cc(-c3cc(NC(=O)c4cc(C(F)(F)F)cnn4)ccc3C)ccn2)ccn1 [Example 95],100 to 500,100 to 500,100 to 500,100 to 500,500 to 1000,100 to 500
CC(=N)Nc1cc(-c2cc(-c3cc(NC(=O)c4cc(C(F)(F)F)cnn4)ccc3C)ccn2)ccn1 [Example 91],100 to 500,500 to 1000,100 to 500,500 to 1000,1000 to 10000,1000 to 10000
Cc1ccc(NC(=O)c2cc(C3CC3)cnn2)cc1-c1ccnc(-c2ccsc2)c1 [Example 144],1000 to 10000,100 to 500,1000 to 10000,100 to 500,100 to 500,100 to 500
Cc1ccc(NC(=O)c2cc(C(F)(F)F)cnn2)cc1-c1ccnc(-c2ccnc(NC(C)C)c2)c1 [Example 54],1000 to 10000,100 to 500,1000 to 10000,100 to 500,100 to 500,100 to 500
"Cc1ccc(NC(=O)c2cc(C(F)(F)F)cnn2)cc1-c1ccnc(-c2ccnc(N)c2)c1 [Example 2, N-(3-(2′-amino-[2,4′-bipyridin]-4-yl)-4-methylphenyl)-5-(trifluoromethyl)pyridazine-3-carboxamide]",< 100,< 100,< 100,< 100,< 100,< 100
"Cc1ccc(NC(=O)c2cc(C(F)(F)F)cnn2)cc1-c1ccnc(-c2ccnc(NC(=O)C3CN(C)CC3(F)F)c2)c1 (stereo not drawn) [Example 94, N-(3-(2′-(4,4-difluoro-1-methylpyrrolidine-3-carboxamido)-[2,4′-bipyridin]-4-yl)-4-methylphenyl)-5-(trifluoromethyl)pyridazine-3-carboxamide]",100 to 500,100 to 500,< 100,500 to 1000,1000 to 10000,1000 to 10000
Cc1ccc(NC(=O)c2ccc(C(F)(F)F)nc2)cc1-c1cncc(-c2ccnc(NC(=O)C3CC3)c2)c1 [Example 72],< 100,100 to 500,< 100,500 to 1000,1000 to 10000,500 to 1000
CCn1cc(-c2cc(-c3cc(NC(=O)c4cc(C(F)(F)F)cnn4)ccc3C)ccn2)cn1 [Example 115],100 to 500,100 to 500,100 to 500,100 to 500,100 to 500,100 to 500
Cc1ccc(NC(=O)c2cc(C(C)(F)F)cnn2)cc1-c1cc(NCCO)nc(-c2ccnc(NC(=O)C3CC3)c2)c1 [Example 101],< 100,< 100,< 100,100 to 500,< 100,100 to 500
Cc1ccc(NC(=O)c2cc(C3CCC3)cnn2)cc1-c1ccnc(-c2ccnc(NC(=O)C3CC3)c2)c1 [Example 44],< 100,< 100,< 100,< 100,< 100,100 to 500
COCC(=O)Nc1cc(-c2cc(-c3cc(NC(=O)c4cc(C(F)(F)F)cnn4)ccc3C)ccn2)ccn1 [Example 48],< 100,< 100,< 100,< 100,< 100,100 to 500
"Cc1ccc(NC(=O)c2cc(C(F)(F)F)cnn2)cc1-c1ccnc(-c2ccnc(/N=C/N(C)C)c2)c1 [Example 37, (E)-N-(3-(2′-(((dimethylamino)methylene)amino)-[2,4′-bipyridin]-4-yl)-4-methylphenyl)-5-(trifluoromethyl)pyridazine-3-carboxamide]",< 100,100 to 500,< 100,< 100,< 100,1000 to 10000
Cc1ccc(NC(=O)c2cc(C)c(C)nn2)cc1-c1ccnc(-c2ccnc(NC(=O)C3CC3)c2)c1 [Example 97],< 100,1000 to 10000,< 100,1000 to 10000,1000 to 10000,1000 to 10000
Cc1ncc(NC(=O)c2cc(C(F)(F)F)cnn2)cc1-c1ccnc(-c2ccnc(NC(=O)C3CC3)c2)c1 [Example 34],< 100,1000 to 10000,< 100,1000 to 10000,1000 to 10000,1000 to 10000
Cc1ccc(NC(=O)c2cc(C3CC3)cnn2)cc1-c1cc(NCCO)nc(-c2ccnc(NC(=O)C3CC3)c2)c1 [Example 100],< 100,< 100,< 100,100 to 500,< 100,100 to 500
Cc1ccc(NC(=O)c2cc(C(C)(F)F)cnn2)cc1-c1cncc(-c2cc(NC(=O)C3CC3)ncn2)c1 [Example 63],< 100,< 100,< 100,100 to 500,500 to 1000,100 to 500
"Cc1ccc(NC(=O)c2cc(C(F)(F)F)cnn2)cc1-c1ccnc(-c2ccnc(NC(=O)C3(F)CC3)c2)c1 [Example 4, N-(3-(2′-(1-fluorocyclopropane-1-carboxamido)-[2,4′-bipyridin]-4-yl)-4-methylphenyl)-5-(trifluoromethyl)pyridazine-3-carboxamide]",< 100,100 to 500,< 100,100 to 500,100 to 500,100 to 500
O=C(Nc1ccc(F)c(-c2ccnc(-c3ccnc(NC(=O)C4CC4)c3)c2)c1)c1cc(C(F)(F)F)cnn1 [Example 47],< 100,1000 to 10000,< 100,1000 to 10000,1000 to 10000,1000 to 10000
Cc1ccc(NC(=O)c2cc(C(F)(F)F)cnn2)cc1-c1ccnc(-c2ccnc(NC(=O)C(F)(F)F)c2)c1 [Example 106],100 to 500,< 100,< 100,< 100,< 100,< 100

# Now from value to compound, other results behind:
IC50 [1] [nM],IC50 (HCT-116 cells) [nM],IC50 [2] [nM],IC50 (MiaPaca-2 cells) [nM],SMILES,IC50 (Pa16c cells) [nM],IC50 (HPAF-II cells) [nM]
< 100,100 to 500,< 100,1000 to 10000,Cc1cnc(NC(=O)c2cc(C(F)(F)F)cnn2)cc1-c1ccnc(-c2ccnc(NC(=O)C3CC3)c2)c1 [Example 36],1000 to 10000,1000 to 10000
< 100,500 to 1000,< 100,100 to 500,Cc1ccc(NC(=O)c2cc(C(F)(F)F)cnn2)cc1-c1cncc(-c2cc(NC=O)ncn2)c1 [Example 124],500 to 1000,500 to 1000
< 100,< 100,< 100,< 100,CNc1cc(-c2cc(NC(=O)c3cc(C(F)(F)F)cnn3)ccc2C)cc(-c2ccnc(NC(=O)C3CC3)c2)n1 [Example 118],< 100,< 100
< 100,< 100,< 100,100 to 500,Cc1ccc(NC(=O)c2cc(C(F)(F)F)cnn2)cc1-c1cc(OCCO)nc(-c2ccnc(NC(=O)C3CC3)c2)c1 [Example 131],100 to 500,100 to 500
< 100,100 to 500,< 100,100 to 500,CNCC(=O)Nc1cc(-c2cc(-c3cc(NC(=O)c4cc(C(C)(F)F)cnn4)ccc3C)ccn2)ccn1 [Example 112],100 to 500,100 to 500
< 100,< 100,< 100,500 to 1000,Cc1ccc(NC(=O)c2cc(C3CC3)cnn2)cc1-c1cc(NCCO)nc(-c2ccnc(NC(=O)C3CC3)c2)n1 [Example 103],1000 to 10000,500 to 1000
< 100,500 to 1000,< 100,1000 to 10000,Cc1ccc(NC(=O)c2cc(C3CC3)cnn2)cc1-c1nc(NCCO)cc(-c2ccnc(NC(=O)C3CC3)c2)n1 [Example 102],1000 to 10000,1000 to 10000
< 100,100 to 500,< 100,500 to 1000,Cc1ccc(NC(=O)c2cncc(C(F)(F)F)c2)cc1-c1ccnc(-c2ccnc(NC(=O)C3CC3)c2)c1 [Example 78],1000 to 10000,100 to 500
< 100,100 to 500,< 100,500 to 1000,Cc1ccc(NC(=O)c2cc(C(F)(F)F)cnn2)cc1-c1cncc(-c2ccnc(NC(=O)C3CC3)c2)c1 [Example 39],100 to 500,500 to 1000
< 100,< 100,< 100,100 to 500,Cc1ccc(NC(=O)c2cncc(C(C)(C)F)c2)cc1-c1cncc(-c2cc(NC(=O)C3CC3)ncn2)c1 [Example 68],500 to 1000,< 100
